Measurements reported in patent publication US9833497B2, “Human originated EGF domain proteins and use of the same” (CHENGDU SOURCEBIO LIMITED-LIABILITY COMPANY, priority 2013, dated 2017).

Tests used:
Assay type in all cases: cell-based
E. coli DH5α = test: Antibacterial activity: MIC and growth curve against E. coli DH5α in 96-well plate; conditions: minimal inhibitory concentration against E. coli DH5α; 96-well plate, 5×10^5 CFU/mL, 37° C., judged after 8 h
Summary of the method: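 Log-phase DH5α (OD600 about 0.5, 37° C, 185 rpm in LB) was pelleted, resuspended in fresh LB and seeded at 5×10^5 CFU/mL with recombinant protein at 50, 25 and 12.5 μg/mL (two-fold series), in triplicate. Plates were shaken at 175 rpm, 37° C, and OD600 was read every 30 min. MIC was the lowest concentration with no growth.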

E. coli BL21 = test: MIC against Gram-negative bacteria: E. coli BL21; conditions: 5×10^5 CFU/mL
Summary of the method: (§1)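 Bacteria grown in LB at 37° C to McFarland 0.5, resuspended and seeded at 5×10^5 CFU/mL in 96-well plates. Purified human EGF-domain proteins two-fold serially diluted, triplicate wells; cultured at 37° C, shaking 175 rpm. MIC = lowest protein concentration with no growth.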

Pseudomonas aeruginosa = test: MIC against Gram-negative bacteria: Pseudomonas aeruginosa; conditions: 5×10^5 CFU/mL
Summary of the method: as §1

Klebsiella pneumonia = test: MIC against Gram-negative bacteria: Klebsiella pneumonia; conditions: 5×10^5 CFU/mL
Summary of the method: as §1

Enterobacter cloacae = test: MIC against Gram-negative bacteria: Enterobacter cloacae; conditions: 5×10^5 CFU/mL
Summary of the method: as §1

Aeromonas hydrophila = test: MIC against Gram-negative bacteria: Aeromonas hydrophila; conditions: 5×10^5 CFU/mL
Summary of the method: as §1

Citrobacter diversus = test: MIC against Gram-negative bacteria: Citrobacter diversus; conditions: 5×10^5 CFU/mL
Summary of the method: as §1

Moraxella catarrhalis = test: MIC against Gram-negative bacteria: Moraxella catarrhalis; conditions: 5×10^5 CFU/mL
Summary of the method: as §1

Proteus mirabilis = test: MIC against Gram-negative bacteria: Proteus mirabilis; conditions: 5×10^5 CFU/mL
Summary of the method: as §1

Proteus vulgaris = test: MIC against Gram-negative bacteria: Proteus vulgaris; conditions: 5×10^5 CFU/mL
Summary of the method: as §1

Serratia marcescens = test: MIC against Gram-negative bacteria: Serratia marcescens; conditions: 5×10^5 CFU/mL
Summary of the method: as §1

[1] = 10 h cultivation at 37° C., two-fold serial dilution
[2] = E. coli BL21, 10 h cultivation at 37° C.
[3] = Pseudomonas aeruginosa, 10 h cultivation at 37° C.
[4] = Klebsiella pneumonia, 10 h cultivation at 37° C.
[5] = Enterobacter cloacae, 10 h cultivation at 37° C.
[6] = Aeromonas hydrophila, 10 h cultivation at 37° C.
[7] = Citrobacter diversus, 10 h cultivation at 37° C.
[8] = Moraxella catarrhalis, 10 h cultivation at 37° C.
[9] = Proteus mirabilis, 10 h cultivation at 37° C.
[10] = Proteus vulgaris, 10 h cultivation at 37° C.
[11] = Serratia marcescens, 10 h cultivation at 37° C.

Substance: PRT1067 (KLTSCATNASICGDEARCVRTEKAAYCACRSGFHTVPGQPGCQ; listed as Homo sapiens)
- MIC (E. coli DH5α): 25 µg/mL
- MIC E. coli BL21 (E. coli BL21; [1]): 50 µg/mL
- MIC P. aeruginosa (Pseudomonas aeruginosa; [1]): 25 µg/mL
- MIC K. pneumonia (Klebsiella pneumonia; [1]): 12.5 µg/mL
- MIC E. cloacae (Enterobacter cloacae; [1]): 25 µg/mL
- MIC A. hydrophila (Aeromonas hydrophila; [1]): 25 µg/mL
- MIC C. diversus (Citrobacter diversus; [1]): 25 µg/mL
- MIC M. catarrhalis (Moraxella catarrhalis; [1]): 12.5 µg/mL
- MIC P. mirabilis (Proteus mirabilis; [1]): 25 µg/mL
- MIC P. vulgaris (Proteus vulgaris; [1]): 50 µg/mL
- MIC S. marcescens (Serratia marcescens; [1]): 25 µg/mL

Substance: PRT1393 (EERSCHSHCTEHGQCKDGKCECSPGWEGDHCT; listed as Homo sapiens)
- MIC (E. coli DH5α): 25 µg/mL
- MIC against E. coli BL21 (E. coli BL21; [2]): 12.5 µg/mL
- MIC against P. aeruginosa (Pseudomonas aeruginosa; [3]): 25 µg/mL
- MIC against K. pneumonia (Klebsiella pneumonia; [4]): 50 µg/mL
- MIC against E. cloacae (Enterobacter cloacae; [5]): 25 µg/mL
- MIC against A. hydrophila (Aeromonas hydrophila; [6]): 12.5 µg/mL
- MIC against C. diversus (Citrobacter diversus; [7]): 25 µg/mL
- MIC against M. catarrhalis (Moraxella catarrhalis; [8]): 50 µg/mL
- MIC against P. mirabilis (Proteus mirabilis; [9]): 12.5 µg/mL
- MIC against P. vulgaris (Proteus vulgaris; [10]): 50 µg/mL
- MIC against S. marcescens (Serratia marcescens; [11]): 12.5 µg/mL

Substance: PRT452 (DIDECTEMPFVCSQKCENVIGSYICKCAPGYLREPDGKTC; listed as Homo sapiens)
- MIC (E. coli DH5α): 12.5 µg/mL
- MIC against E. coli BL21 (E. coli BL21; 96-well plate, 37° C., 10 h): 12.5 µg/mL
- MIC against P. aeruginosa (Pseudomonas aeruginosa; 96-well plate, 37° C., 10 h): 12.5 µg/mL
- MIC against K. pneumonia (Klebsiella pneumonia; 96-well plate, 37° C., 10 h): 12.5 µg/mL
- MIC against E. cloacae (Enterobacter cloacae; 96-well plate, 37° C., 10 h): 50 µg/mL
- MIC against A. hydrophila (Aeromonas hydrophila; 96-well plate, 37° C., 10 h): 12.5 µg/mL
- MIC against C. diversus (Citrobacter diversus; 96-well plate, 37° C., 10 h): 50 µg/mL
- MIC against M. catarrhalis (Moraxella catarrhalis; 96-well plate, 37° C., 10 h): 25 µg/mL
- MIC against P. mirabilis (Proteus mirabilis; 96-well plate, 37° C., 10 h): 12.5 µg/mL
- MIC against P. vulgaris (Proteus vulgaris; 96-well plate, 37° C., 10 h): 25 µg/mL
- MIC against S. marcescens (Serratia marcescens; 96-well plate, 37° C., 10 h): 50 µg/mL

Substance: PRT1372 (GSRRCPGDCRGHGLCEDGVCVCDAGYSGEDC; listed as Homo sapiens)
- MIC (E. coli DH5α): 12.5 µg/mL
- MIC against E. coli BL21 (E. coli BL21; [2]): 25 µg/mL
- MIC against P. aeruginosa (Pseudomonas aeruginosa; [3]): 12.5 µg/mL
- MIC against K. pneumonia (Klebsiella pneumonia; [4]): 25 µg/mL
- MIC against E. cloacae (Enterobacter cloacae; [5]): 12.5 µg/mL
- MIC against A. hydrophila (Aeromonas hydrophila; [6]): 25 µg/mL
- MIC against C. diversus (Citrobacter diversus; [7]): 12.5 µg/mL
- MIC against M. catarrhalis (Moraxella catarrhalis; [8]): 25 µg/mL
- MIC against P. mirabilis (Proteus mirabilis; [9]): 12.5 µg/mL
- MIC against P. vulgaris (Proteus vulgaris; [10]): 25 µg/mL
- MIC against S. marcescens (Serratia marcescens; [11]): 12.5 µg/mL

Substance: PRT169 (CIRYPGCLHGTCQQPWQCNCQEGWGGLFC; listed as Homo sapiens)
- MIC (E. coli DH5α): 50 µg/mL
- MIC (μg/mL) E. coli BL21 (E. coli BL21; [2]): 12.5 µg/mL
- MIC (μg/mL) P. aeruginosa (Pseudomonas aeruginosa; 10 h cultivation at 37° C.): 50 µg/mL
- MIC (μg/mL) K. pneumonia (Klebsiella pneumonia; 10 h cultivation at 37° C.): 100 µg/mL
- MIC (μg/mL) E. cloacae (Enterobacter cloacae; 10 h cultivation at 37° C.): 50 µg/mL
- MIC (μg/mL) A. hydrophila (Aeromonas hydrophila; 10 h cultivation at 37° C.): 25 µg/mL
- MIC (μg/mL) C. diversus (Citrobacter diversus; 10 h cultivation at 37° C.): 12.5 µg/mL
- MIC (μg/mL) M. catarrhalis (Moraxella catarrhalis; 10 h cultivation at 37° C.): 25 µg/mL
- MIC (μg/mL) P. mirabilis (Proteus mirabilis; 10 h cultivation at 37° C.): 50 µg/mL
- MIC (μg/mL) P. vulgaris (Proteus vulgaris; 10 h cultivation at 37° C.): 25 µg/mL
- MIC (μg/mL) S. marcescens (Serratia marcescens; 10 h cultivation at 37° C.): 12.5 µg/mL

Substance: PRT866 (CQCHGHAARCAARARPPRCHCRHHTTGPGCESCRPSHRDWPWRPATPRHPHPCLP; listed as Homo sapiens)
- MIC (E. coli DH5α): 25 µg/mL
- MIC (μg/mL) E. coli BL21 (E. coli BL21; [2]): 12.5 µg/mL
- MIC (μg/mL) P. aeruginosa (Pseudomonas aeruginosa; 10 h cultivation at 37° C.): 25 µg/mL
- MIC (μg/mL) K. pneumonia (Klebsiella pneumonia; 10 h cultivation at 37° C.): 12.5 µg/mL
- MIC (μg/mL) E. cloacae (Enterobacter cloacae; 10 h cultivation at 37° C.): 12.5 µg/mL
- MIC (μg/mL) A. hydrophila (Aeromonas hydrophila; 10 h cultivation at 37° C.): 12.5 µg/mL
- MIC (μg/mL) C. diversus (Citrobacter diversus; 10 h cultivation at 37° C.): 12.5 µg/mL
- MIC (μg/mL) M. catarrhalis (Moraxella catarrhalis; 10 h cultivation at 37° C.): 12.5 µg/mL
- MIC (μg/mL) P. mirabilis (Proteus mirabilis; 10 h cultivation at 37° C.): 12.5 µg/mL
- MIC (μg/mL) P. vulgaris (Proteus vulgaris; 10 h cultivation at 37° C.): 25 µg/mL
- MIC (μg/mL) S. marcescens (Serratia marcescens; 10 h cultivation at 37° C.): 12.5 µg/mL

Substance: PRT660 (DHDECQDLACENGECVNTEGSFHCFCSPPLTLDLSQQRCM; listed as Homo sapiens)
- MIC (E. coli DH5α): 12.5 µg/mL
- MIC E. coli BL21 (E. coli BL21; 96-well plate, 37° C., 10 h): 50 µg/mL
- MIC P. aeruginosa (Pseudomonas aeruginosa; 96-well plate, 37° C., 10 h): 12.5 µg/mL
- MIC K. pneumonia (Klebsiella pneumonia; 96-well plate, 37° C., 10 h): 12.5 µg/mL
- MIC E. cloacae (Enterobacter cloacae; 96-well plate, 37° C., 10 h): 50 µg/mL
- MIC A. hydrophila (Aeromonas hydrophila; 96-well plate, 37° C., 10 h): 12.5 µg/mL
- MIC C. diversus (Citrobacter diversus; 96-well plate, 37° C., 10 h): 50 µg/mL
- MIC M. catarrhalis (Moraxella catarrhalis; 96-well plate, 37° C., 10 h): 12.5 µg/mL
- MIC P. mirabilis (Proteus mirabilis; 96-well plate, 37° C., 10 h): 25 µg/mL
- MIC P. vulgaris (Proteus vulgaris; 96-well plate, 37° C., 10 h): 50 µg/mL
- MIC S. marcescens (Serratia marcescens; 96-well plate, 37° C., 10 h): 12.5 µg/mL
